Source: patent publication US20120058948A1, “Collagen peptides as immune modulators” (priority 2006, published 2012)
“Also recorded” adds a separate entry of the source. Square brackets hold non-standard residues; d marks the D form. Ends that are not written are not given here. Hyp = O=C(O)[C@@H]1C[C@@H](O)CN1

Tested on: human peripheral blood monocytes (HPBMs) activated with LPS
Assay: LPS-induced IL-1β production (ELISA) from activated HPBMs incubated with LPS and peptide
Type: cell-based
Conditions: for effect on LPS-induced IL-1β production from HPBMs: LPS 3.3×10^−7 M plus peptide 10^−7, 10^−8 or 10^−9 M, compared with LPS alone, FIG. 3; for effect on LPS-induced IL-1β production at all concentrations studied: all peptide concentrations studied (10^−7 to 10^−9 M), FIGS. 3B-D
Protocol: Samples (10 mg each) of peptide p1 (Lot #10055791, Genemed Synthesis Inc., San Francisco, Calif.), p2 (Lot #10059702, Genemed Synthesis Inc.) and p3 (Lot #10059701, Genemed Synthesis Inc.) were obtained with >98% purity. Each peptide was diluted with phosphate buffered saline (PBS, […], pH 7.2, 20012-043, Invitrogen Corp., Carlsbad, Calif.) yielding solutions of 10 mg/mL. The peptide solutions were incubated at 4° C. for 24 hours, then stored at −80° C. until required. Glucagon (G2044, Sigma-Aldrich, St. Louis, Mo.) was stored, defrosted and treated in an identical manner to p1, p2 and p3.
Human peripheral blood monocytes were isolated from whole blood supplied by a healthy […] as follows. A 45 mL sample was drawn using 3.2% sodium citrate vacuum tubes. Whole blood was then diluted with a 2.5 mM PBS solution (0.1M, […], Sterile, S02131, Teknova Inc., Hollister, Calif.) to form a solution having a 1:2 ratio of blood:PBS solution. Red blood cells were subsequently removed by density gradient separation using a 1:1 ratio of Histopaque-1077 (Sigma-Aldrich) and centrifuged for 30 minutes at 400×g at 25° C. The plasma layer was removed by aspiration, and the buffy layer, comprising lymphocytes, monocytes and platelets, was collected into two 50 mL conical tubes. To remove the excess histopaque, platelets and plasma, the cells were centrifuged at 250×g for an additional 10 minutes at 4° C. The supernatant was removed and the cells resuspended in 2.5 mM PBS sodium citrate and centrifuged again. The platelet-enriched supernatant was removed after the second wash, leaving a cell pellet in each of the two tubes.
The remainder of the monocyte isolation was carried out using a MS 130-041-201 column (MACS, Miltenyi Biotec, Bergisch Gladbach, Germany) and Human Monocyte Isolation Kit II (MACS, Miltenyi Biotec) as outlined by the manufacturer. The column was washed with 1 mL of 1% heat inactivated fetal bovine serum (1% HI-FBS, USA origin, sterile-filtered, cell culture tested, hybridoma tested, F2442 Sigma-Aldrich) in a PBS sodium citrate solution. The cell pellets were combined into one tube. The cell solution was centrifuged at 300×g at 4° C. and the supematant removed before adding 30 microliters of 1% HI-FBS, 20 microliters FCR blocking agent and 20 microliters monocyte biotin-antibody cocktail per 10^7 cells to the pellet. The tube was lightly agitated then chilled for 10 minutes at 4° C. Anti-biotin microbeads (40 microliters) and 30 microliters of additional 1% HI-FBS per 10^7 cells were added to each tube. The tube was vortexed for three to five seconds to mix, then set to chill at 4° C. for another 15 minutes.
After the incubation at 4° C., 2 mL of 1% HI-FBS were added, and the sample was centrifuged for 10 minutes at 300×g at 25° C. to remove excess antibodies and beads. The supernatant was removed and the pellet carefully re-suspended in 500 microliters of 1% HI-FBS. This cell solution was added to the column, and no further fluid was added until the flow of solution through the column had stopped. The tube and column were washed three times with 500 microliters of 1% HI-FBS, and the fluid was collected for cell culture. Subsequent fluorescence activated cell sorter (FACS) analysis of tissue culture samples confirmed a monocyte purity of >82%. Monocytes were seeded at 5×10^5 per well and cultured in 10% FBS RPMI 1640 and allowed to incubate at 37° C. in 5% CO2.
Because the peptides under investigation can spontaneously form triple-helical structures in solution, the peptides were heated to 90° C. for two minutes prior to introducing them to HPBM cultures to ensure that unfolded peptides, corresponding to the collagen-degradation products, were used for the experiments. The peptide solutions were then diluted with RPMI 1640 10% FBS at 37° C., yielding a final concentration of 1 microgram/mL. Serial dilutions of the peptide samples were performed to obtain the solutions at the desired concentration. […]

Sequence | effect on LPS-induced IL-1β production from HPBMs | effect on LPS-induced IL-1β production at a relatively high concentration of peptide (LPS 3.3×10^−7 M, relatively high peptide concentration (close to that in synovial fluid of RA patients), FIG. 3A/3D) | effect on LPS-induced IL-1β production at all concentrations studied (LPS 3.3×10^−7 M) | time at which elevated IL-1β levels began, peptide p1 relative to peptide p3 (LPS 3.3×10^−7 M plus peptide, sampling every four hours for 28 hours)
HSQGTIFTSDYSKYLDSRRAQDFVQWLMNT [peptide p0, reference compound] | no significant effect | not statistically significant | – | –
POGPOGPOGAOGLRGGAGPAGPOGPOGPOG (P[Hyp]GP[Hyp]GP[Hyp]GA[Hyp]GLRGGAGPAGP[Hyp]GP[Hyp]GP[Hyp]G; ends and bridges not checked) [peptide p3, models a relatively imino-poor but relatively rigid collagen segment near a gelatinase scissile bond, flanked by POG triplets] | additive effect; also recorded: greatest effect; also recorded: augmented | – | augment | –
POGPOGPOGPOGPOGPOGPOGPOGPOGPOG [peptide p1] | additive effect; also recorded: augmented | – | augment | later time
